# Results: patent US11377425B1, “Small molecule modulators of IL-17” (LEO Pharma A/S, priority 2018, dated 2022)
# Molecular target: T1, human IL-17AA (Homo sapiens, UniProt Q16552)
# T1 construct: host or cells: HEK (human embryonic kidney) cells
# T1 sequence (Q16552 24-155): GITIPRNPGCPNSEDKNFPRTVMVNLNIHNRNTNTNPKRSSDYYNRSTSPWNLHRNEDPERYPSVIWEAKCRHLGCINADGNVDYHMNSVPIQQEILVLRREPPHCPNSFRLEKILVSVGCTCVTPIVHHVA
# Test: IL-8 release assay in human epithelial keratinocytes adult (HEKa)
# Format: cell-based
# Details: HEKa cells, 3 ng/mL HEK-human IL-17AA + 10 ng/mL human TNFalpha; read-out: Rel EC50 IL-8 release assay
# How it was run: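 Adult human epidermal keratinocytes stimulated 68-72 h at 37 °C with 3 ng/mL HEK-derived human IL-17AA plus 10 ng/mL TNF-alpha (final) in the presence of compound; TNF-alpha alone defines 100% inhibition. Secreted IL-8 measured by HTRF as percent of controls; relative IC50/Emax from four-parameter fit (r^2>0.9), cytotoxicity by PrestoBlue.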
row,SMILES,EC50 [nM]
1,"Cc1n[nH]c(C)c1-c1ccc(NC(=O)[C@@H](NC(=O)c2ccnn2C)C2CCCCCC2)cc1 [Example 3, N-[(1S)-1-cycloheptyl-2-[4-(3,5-dimethyl-1H-pyrazol-4-yl)anilino]-2-oxo-ethyl]-2-methyl-pyrazole-3-carboxamide]",< 100
2,"Cc1n[nH]c(C)c1-c1ccc(NC(=O)[C@@H](NC(=O)c2ccnn2C)[C@@H]2CCc3ccc(Br)cc32)cc1 [Example 4, N-[(1S)-1-[(1R)-6-bromoindan-1-yl]-2[4-(3,5-dimethyl-1H-pyrazol-4-yl)anilino]-2-oxo-ethyl]-2-methyl-pyrazole-3-carboxamide]",100 to 1000
3,"Cc1n[nH]c(C)c1-c1ccc(NC(=O)[C@@H](NC(=O)c2ccnn2C)[C@H]2CCc3ccc(Br)cc32)cc1 [Example 5, N-[(1S)-1-[(1S)-6-bromoindan-1-yl]-2[4-(3,5-dimethyl-1H-pyrazol-4-yl)anilino]-2-oxo-ethyl]-2-methyl-pyrazole-3-carboxamide]",< 100
4,"Cc1n[nH]c(C)c1-c1ccc(NC(=O)[C@@H](NC(=O)c2ccnn2C)[C@H]2CCCc3ccc(Br)cc32)cc1 [Example 6, N-[(1S)-1-[(1S)-7-bromotetralin-1-yl]-2-[4 (3,5-dimethyl-1H-pyrazol-4-yl)anilino]-2-oxo-ethyl]-2-methyl-pyrazole-3-carboxamide]",< 100
5,"Cc1n[nH]c(C)c1-c1ccc(NC(=O)[C@@H](NC(=O)c2ccnn2C)[C@H]2CCCCC(F)(F)C2)cc1 [Example 7, N-[(1S)-1-[(1S)-3,3-difluorocycloheptyl]-2-[4-(3,5-dimethyl-1H-pyrazol-4-yl)anilino]-2-oxo-ethyl]-2-methyl-pyrazole-3-carboxamide]",100 to 1000

# Further lines, results first:
row,EC50 [nM],SMILES
1,> 1000,"Cc1n[nH]c(C)c1-c1ccc(NC(=O)[C@@H](NC(=O)c2ccnn2C(C)(C)C)C2CCCCC2)cc1 [Example 8, 2-tert-butyl-N-[(1S)-1-cyclohexyl-2-[4-(3,5-dimethyl-1H-pyrazol-4-yl)anilino]-2-oxo-ethyl]pyrazole-3-carboxamide]"
2,< 100,"CCn1nccc1C(=O)N[C@H](C(=O)Nc1ccc(-c2c(C)n[nH]c2C)cc1)C1CCCCC1 [Example 9, N-[(1S)-1-cyclohexyl-2-[4-(3,5-dimethyl-1H-pyrazol-4-yl)anilino]-2-oxo-ethyl]-2-ethyl-pyrazole-3-carboxamide]"
3,< 100,"Cc1n[nH]c(C)c1-c1ccc(NC(=O)[C@@H](NC(=O)c2ccnn2C(C)C)C2CCCCC2)cc1 [Example 10, N-[(1S)-1-cyclohexyl-2-[4-(3,5-dimethyl-1H-pyrazol-4-yl)anilino]-2-oxo-ethyl]-2-isopropyl-pyrazole-3-carboxamide]"
4,100 to 1000,"Cc1n[nH]c(C)c1-c1ccc(NC(=O)[C@@H](NC(=O)c2ccnn2C)C2CCC(F)(F)CC2)cc1 [Example 11, N-[(1S)-1-(4,4-difluorocyclohexyl)-2-[4-(3,5-dimethyl-1H-pyrazol-4-yl)anilino]-2-oxo-ethyl]-2-methyl-pyrazole-3-carboxamide]"
5,< 100,"Cc1n[nH]c(C)c1-c1ccc(NC(=O)[C@@H](NC(=O)c2ccnn2C(C)C)C2CCC(F)(F)CC2)cc1 [Example 12, N-[(1S)-1-(4,4-difluorocyclohexyl)-2-[4-(3,5-dimethyl-1H-pyrazol-4-yl)anilino]-2-oxo-ethyl]-2-isopropyl-pyrazole-3-carboxamide]"
6,< 100,"Cc1n[nH]c(C)c1-c1ccc(NC(=O)[C@@H](NC(=O)c2ccnn2C)C(C2CCC2)C2CCC2)cc1 [Example 13, N-[(1S)-1-[di(cyclobutyl)methyl]-2-[4-(3,5-dimethyl-1H-pyrazol-4-yl)anilino]-2-oxo-ethyl]-2-methyl-pyrazole-3-carboxamide]"
7,100 to 1000,"Cc1n[nH]c(C)c1-c1ccc(NC(=O)[C@H](CC2CCCCC2)NC(=O)c2ccnn2C)cc1 [Example 15, N-[(1S)-1-(cyclohexylmethyl)-2-[4-(3,5-dimethyl-1H-pyrazol-4-yl)anilino]-2-oxo-ethyl] 2-methyl-pyrazole-3-carboxamide]"
